Measurements: patent EP2093222A1, “Polyisoprenoid epoxides useful for decreasing cholesterol and/or increasing coenzyme Q biosynthesis” (NEWBIOTECHNIC, S.A., priority 2008, dated 2009)

How the values were obtained:
HepG2 cells [1] = experiment: Biosynthesis of cholesterol and CoQ by HepG2 cells: incorporation of [3H]mevalonate, lipid extraction, HPLC with on-line detection of radioactivity; assay type: cell-based, human; details: for Coenzyme Q10: labeling of CoQ
Experimental: (§1) Human hepatoblastoma (HepG2) cells (cell line derived from a human liver cancer that contains primarily CoQ with a decaprenyl side-chain available in ATCC (Cat. No. HB-8065), obtained from LGC Prochem, UK) were cultured in 10 ml DMEM medium (Invitrogen) containing 1 g glucose per 100 ml, 10% fetal bovine serum, penicillin (100 units per ml) and streptomycin ([…]). When 70% confluency was reached, the medium was changed and the compounds to be investigated added in 50-100 µl dimethylsulfoxide to give a final concentration of 2 µM or in the case of tocotrienols 5 µM. Twenty-four hours later, 0.5 mCi [^3H]mevalonate (3.25 Ci/mmol) was added and incubation continued for an additional 8 hours. When the substrate was [^3H]lanosterol (0.28 Ci/mmol) the amount added was 5 µCi. Finally, the cells were harvested by trypsinisation and stored at -20° C for later analysis.
(§2) Lipids were extracted from cells with chloroform:methanol:water (1:1:0.3), at 37°C for 1 hr with magnetic stirring (Ericsson, J., Runquist, M., Thelin, A., Andersson, M., Chojnacki, T., and Dallner, G. (1993) J Biol Chem 268(2), 832-838). The extracts thus obtained were adjusted to achieve a final chloroform:methanol:water ratio of 3:2:1 and complete phase separation then accomplished by centrifugation. The lower chloroform phase was removed and evaporated to dryness under a flow of nitrogen and the residue subsequently re-dissolved in chloroform. These solutions were placed onto a silica column (50 mg/1.5 ml; Extract-Clean, Alltech, Deerfield, IL) and thereafter eluted with 6 ml chloroform. After evaporation of the solvents, the neutral lipids were dissolved in chloroform:methanol (2:1).
(§3) For analysis of cholesterol, cholesterol metabolites, squalene, and CoQ, the samples were subjected to reversed-phase HPLC using a Supelcosil LC-18 column (3 µm, 4.0 x 75 mm) equipped with an LC-18 Supelguard (Supelco) column (Ericsson, J., Thelin, A., Chojnacki, T., and Dallner, G. (1992) J Biol Chem 267(27), 19730-19735). For separation, a stepwise gradient involving methanol:water (9:1) in pump system A and methanol:2-propanol:hexane (2:1:1) in pump system B was employed at a flow rate of 1.1 ml/min. The gradient began at 15% solvent B, with increases to 47% after 8 min, 67% after 16 min and 100% after 24 min. The lipids in the eluent were monitored at 210 nm and 275 nm with a UV detector and labeling of radioactive products was measured with on-line detector of radioactivity. Ergosterol and CoQ6 were used as internal standards.

HepG2 cells [2] = experiment: Biosynthesis of cholesterol from [3H]lanosterol in the presence of inhibitors; assay type: cell-based, human; details: for Cholesterol: 2 µM tetraepoxysolanesol or ketoconazole or 0.2 µM RO 48-8071, 24 hrs, then [3H]lanosterol 8 hrs, means ± SE of 3 experiments; for cholesterol synthesis with [3H]lanosterol as precursor: result in words
Experimental: as §1, §2, §3

HepG2 cells [3] = experiment: Biosynthesis of cholesterol and CoQ by HepG2 cells: incorporation of [3H]mevalonate, lipid extraction, HPLC with on-line detection of radioactivity; assay type: cell-based; details: Homo sapiens, [3H]mevalonate incorporation into cholesterol, read-out: inhibition (reduction) of cholesterol synthesis
[4] = 2 µM, 24 hours, then [3H]mevalonate for 8 hours, means ± SD (n = 4)
[5] = 2 µM, 24 hours, then [3H]mevalonate for 8 hours, labeling of cholesterol, means ± SD (n = 4)
[6] = 2 µM tetraepoxysolanesol or ketoconazole or 0.2 µM RO 48-8071, 24 hrs, then [3H]mevalonate 8 hrs, means ± SE
[7] = 2 µM tetraepoxysolanesol or ketoconazole or 0.2 µM RO 48-8071, 24 hrs, then [3H]mevalonate 8 hrs, means ± SE, n.d. = not detectable

| Compound | Coenzyme Q10 (HepG2 cells [1]; [4]) | Cholesterol (HepG2 cells [1]; [5]) | other results |
| --- | --- | --- | --- |
| CC(C)=CCC/C(C)=C/CC/C(C)=C/CO [Farnesol] | 100 ± 4 % of control | 101 ± 3 % of control |  |
| CC(C)=CCC/C(C)=C/CC/C(C)=C/CC/C(C)=C/CO [Geranylgeraniol] | 107 ± 11 % of control | 102 ± 5 % of control |  |
| CC(=O)OC/C=C(\C)CC/C=C(\C)CC/C=C(\C)CCC=C(C)C [Geranylgeranyl-acetate] | 109 ± 12 % of control | 102 ± 4 % of control |  |
| CC(=O)N1CCN(c2ccc(OCC3COC(Cn4ccnc4)(c4ccc(Cl)cc4Cl)O3)cc2)CC1 (centres unmarked) [Ketoconazole, reference compound] |  |  | Cholesterol (HepG2 cells [2]): 1.3 ± 0.3 cpm/pg protein; cholesterol synthesis with [3H]lanosterol as precursor (HepG2 cells [2]): inhibited; CQ10 (HepG2 cells [1]; [6]): 2.4 ± 0.3 cpm/pg protein; Cholesterol (HepG2 cells [1]; [7]): 25 ± 4 cpm/pg protein; Lanosterol (HepG2 cells [1]; [7]): 58 ± 16 cpm/pg protein |
| C=CCN(C)CCCCCCOc1ccc(C(=O)c2ccc(Br)cc2)c(F)c1 [RO 48-8071, reference compound] |  |  | Cholesterol (HepG2 cells [2]): 10.1 ± 1.2 cpm/pg protein; cholesterol synthesis with [3H]lanosterol as precursor (HepG2 cells [2]): neither tetraepoxysolanesol or RO 48-8071 inhibited; CQ10 (HepG2 cells [1]; [6]): 2.1 ± 0.2 cpm/pg protein; 2,3-Oxido squalene (HepG2 cells [1]; [7]): 91 ± 10 cpm/pg protein; 2,3:22,23-Dioxidosqualene (HepG2 cells [1]; [7]): 108 ± 22 cpm/pg protein |
| CC(C)=CCC/C(C)=C/CC/C(C)=C/CC/C=C(\C)CC/C=C(\C)CCC=C(C)C [Squalene] | 111 ± 8 % of control | 30 ± 5 % of control | inhibition at 2 µM (HepG2 cells [3]): 70% |
| Farnesyl-acetate | 105 ± 8 % of control | 103 ± 4 % of control |  |
| Solanesol | 138 ± 14 % of control | 3 ± 1 % of control |  |
| Solanesyl-acetate | 145 ± 18 % of control | 4 ± 2 % of control |  |
| Vitamin K2 | 127 ± 18 % of control | 67 ± 7 % of control | inhibition (reduction) of cholesterol synthesis (HepG2 cells [1]; 2 µM, [3H]mevalonate incorporation into cholesterol): 33%; elevation (stimulation) of CoQ synthesis (HepG2 cells [1]; 2 µM, [3H]mevalonate labeling of CoQ): 27% |
